The source of these data is ChEMBL document CHEMBL1142393, “Design and characterization of mechanism-based inhibitors for the tyrosine aminomutase SgTAM” (Bioorg Med Chem Lett, 2008).

The nature of the test: Inhibition of Streptomyces globisporus TAM.
For the compound `O=C(O)[C@H]1O[C@@H]1c1ccc(F)cc1`, 11.6 mM corresponded to half-maximal inhibition (IC50). This counts as millimolar.
The same measure for `COc1ccc([C@H]2O[C@@H]2C(=O)O)cc1`: 3 mM; for `N[C@H](c1ccccc1)C(F)(F)C(=O)O`: 7.3 mM.
The same measure for `O=C(O)[C@H]1O[C@@H]1c1ccccc1`: 5.8 mM.
